Measured values from patent publication US20160090556A1, “PRODUCTS COMPRISING MALODOR REDUCTION MATERIALS” (The Procter & Gamble Company, priority 2014, published 2016).

Experiment: Liquid dish neat product liquid-air partition coefficient
Format: physicochemical
Settings: for Comment Code: Log of liquid dish neat product liquid-air partition coefficient: code letters K, L

| SMILES | Log of liquid dish neat product liquid-air partition coefficient (Comment Code K/L) | Comment Code: Log of liquid dish neat product liquid-air partition coefficient |
| --- | --- | --- |
| CC(C)=C1CCC2=CC(=O)CC(C)C2(C)C1 (stereo not drawn) [Material 684] | K (Log of liquid dish neat product liquid-air partition coefficient greater than or equal to −7) | K (Log of liquid dish neat product liquid-air partition coefficient greater than or equal to −7) |
| CCC(=O)OC(C)(C)C1CC=C(C)CC1 (stereo not drawn) [Material 686] | K (Log of liquid dish neat product liquid-air partition coefficient greater than or equal to −7) |  |
| CC(=O)OC(C)(C)C1CC=C(C)CC1 (stereo not drawn) [Material 687] |  | K (Log of liquid dish neat product liquid-air partition coefficient greater than or equal to −7) |
| C=CC(C)=CCC=C(C)CCC=C(C)C=O [Material 691] | K (Log of liquid dish neat product liquid-air partition coefficient greater than or equal to −7) |  |
| C=C(C)C1CCC2(C)CCC=C(C)C2C1 (stereo not drawn) [Material 692] | K (Log of liquid dish neat product liquid-air partition coefficient greater than or equal to −7) |  |
| CC(=CCCC1(C)C2CC3C(C2)C31C)CO (stereo not drawn) [Material 694] | K (Log of liquid dish neat product liquid-air partition coefficient greater than or equal to −7) | K (Log of liquid dish neat product liquid-air partition coefficient greater than or equal to −7) |
| C=CCCC(=O)C1=CCCC(C)(C)C1 [Material 697] | K (Log of liquid dish neat product liquid-air partition coefficient greater than or equal to −7) |  |
| CC(O)CCC1CCCCC1 (stereo not drawn) [Material 699] |  | K (Log of liquid dish neat product liquid-air partition coefficient greater than or equal to −7) |
| CCC(=O)C=CC1C(C)=CCCC1(C)C (stereo not drawn) [Material 700] | K (Log of liquid dish neat product liquid-air partition coefficient greater than or equal to −7) |  |
| CC(C=O)=Cc1ccccc1 [Material 701] |  | K (Log of liquid dish neat product liquid-air partition coefficient greater than or equal to −7) |
| CC(=O)C(C)=CC1C(C)=CCCC1(C)C (stereo not drawn) [Material 703] |  | K (Log of liquid dish neat product liquid-air partition coefficient greater than or equal to −7) |
| CC(=O)C=CC1C(C)=CCC(C)C1(C)C (stereo not drawn) [Material 704] | K (Log of liquid dish neat product liquid-air partition coefficient greater than or equal to −7) |  |
| CC1=CCCC(C)=CCC(C)(C)C=CC1 [Material 706] | K (Log of liquid dish neat product liquid-air partition coefficient greater than or equal to −7) |  |
| C=C1CCCC(C)(C)C2C=C(C)CCC12 (stereo not drawn) [Material 707] | K (Log of liquid dish neat product liquid-air partition coefficient greater than or equal to −7) |  |
| C=CC(C)=CCC=C(C)CCC=C(C)C [Material 710] | K (Log of liquid dish neat product liquid-air partition coefficient greater than or equal to −7) |  |
| CC1=CCCC2(C)CCC(C(C)(C)O)CC12 (stereo not drawn) [Material 712] | K (Log of liquid dish neat product liquid-air partition coefficient greater than or equal to −7) | K (Log of liquid dish neat product liquid-air partition coefficient greater than or equal to −7) |
| CC(C)=CCCC(C)c1ccc(C)cc1 (stereo not drawn) [Material 713] | K (Log of liquid dish neat product liquid-air partition coefficient greater than or equal to −7) |  |

| SMILES | Log of liquid dish neat product liquid-air partition coefficient (Comment Code K/L) | Comment Code: Log of liquid dish neat product liquid-air partition coefficient |
| --- | --- | --- |
| CC1=CC2C(C(C)C)CCC(C)(O)C2CC1 (stereo not drawn) [Material 716] | K (Log of liquid dish neat product liquid-air partition coefficient greater than or equal to −7) |  |
| CC(C)=CCC=C(C)C1CC=C(C)CC1 (stereo not drawn) [Material 719] | K (Log of liquid dish neat product liquid-air partition coefficient greater than or equal to −7) |  |
| CC1=CCCC2(C)CCC3CC12OC3(C)C (stereo not drawn) [Material 726] | K (Log of liquid dish neat product liquid-air partition coefficient greater than or equal to −7) | K (Log of liquid dish neat product liquid-air partition coefficient greater than or equal to −7) |
| CCCC(O)Cc1ccccc1 (stereo not drawn) [Material 730] | K (Log of liquid dish neat product liquid-air partition coefficient greater than or equal to −7) |  |
| CCC(C)(O)CCc1ccccc1 (stereo not drawn) [Material 731] | K (Log of liquid dish neat product liquid-air partition coefficient greater than or equal to −7) |  |
| Cc1ccc(CC(C)C=O)cc1 (stereo not drawn) [Material 742] | K (Log of liquid dish neat product liquid-air partition coefficient greater than or equal to −7) |  |
| C=CCOC(=O)COc1ccccc1 [Material 743] |  | K (Log of liquid dish neat product liquid-air partition coefficient greater than or equal to −7) |
| C=CCOCCc1ccccc1 [Material 744] |  | K (Log of liquid dish neat product liquid-air partition coefficient greater than or equal to −7) |
| C=CCOC(=O)CCC1CCCCC1 [Material 746] | K (Log of liquid dish neat product liquid-air partition coefficient greater than or equal to −7) |  |
| C=CCOC(=O)COCCC(C)C [Material 748] | K (Log of liquid dish neat product liquid-air partition coefficient greater than or equal to −7) |  |
| CCC(=O)N(CC)c1cccc(C)c1 [Material 755] |  | K (Log of liquid dish neat product liquid-air partition coefficient greater than or equal to −7) |
| COc1ccc(C(C)=O)cc1 [Material 761] |  | K (Log of liquid dish neat product liquid-air partition coefficient greater than or equal to −7) |
| CCCOC(C)OCCc1ccccc1 (stereo not drawn) [Material 766] | K (Log of liquid dish neat product liquid-air partition coefficient greater than or equal to −7) |  |
| COCCOC(C)OCc1ccccc1 (stereo not drawn) [Material 768] | K (Log of liquid dish neat product liquid-air partition coefficient greater than or equal to −7) |  |
| C=C(C)C1CCC2(C)CCC=C(C)C2C1 (stereo not drawn) [Material 774] | K (Log of liquid dish neat product liquid-air partition coefficient greater than or equal to −7) |  |
| CC1=CCCC2(C)CCC(C(C)(C)O)CC12 (stereo not drawn) [Material 775] | K (Log of liquid dish neat product liquid-air partition coefficient greater than or equal to −7) | K (Log of liquid dish neat product liquid-air partition coefficient greater than or equal to −7) |
| CC(C)c1ccc2ncccc2c1 [Material 778] | K (Log of liquid dish neat product liquid-air partition coefficient greater than or equal to −7) |  |
